Measured values published in patent US9527885B2, “Hepatitis C virus inhibitors” (BRISTOL-MYERS SQUIBB COMPANY, priority 2011, dated 2016).

Legend:
[1] = tested on: HCV genotype 1a (H77 strain) replicon in HUH-7 cells; assay: HCV replicon luciferase reporter assay, genotype 1a; assay type: cell-based; details: Hepatitis C virus, Huh-7, 72 h, HCV genotype 1a replicon luciferase, 3 days incubation, class symbols, read-out: LE_1a (EC50, range)
Method in brief: (§1)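 Twenty-point, threefold compound titrations (0.5% DMSO) were incubated 3 days at 37 °C with 3.0×10^3 HUH-7 cells/well in 4% FCS. The cells stably carried luciferase replicons: genotype 1b Con1 (S1179I) or 1a H77 (NS3 P1496L, NS5A S2204I). Renilla signal was read after 2 h with 7.5 μM EnduRen, and EC50 was taken from a four-parameter logistic fit. Cytotoxicity (CC50) was measured by Cell Titer-Blue, 8 h.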

[2] = tested on: HCV genotype 1b (Con1) replicon in HUH-7 cells; assay: HCV replicon luciferase reporter assay, genotype 1b; assay type: cell-based; details: Hepatitis C virus, 72 h, HCV genotype 1b replicon luciferase, 3 days incubation, class symbols, read-out: LE_1b (EC50, range)
Method in brief: as §1

| SMILES | EC50 [1] | EC50 [2] |
| --- | --- | --- |
| CCOc1cnc(O[C@@H]2C[C@H]3C(=O)N[C@]4(C(=O)NS(=O)(=O)C5(C)CC5)C[C@H]4/C=C\CC[C@H](C)C[C@@H](C)[C@H](NC(=O)OC(C)(C)C(C)(F)F)C(=O)N3C2)c2ccccc12 [Compound 5112, 3,3-difluoro-2-methylbutan-2-yl ((2R,6S,7R,9S,13aS,14aR,16aS,Z)-2-((4-ethoxyisoquinolin-1-yl)oxy)-7,9-dimethyl-14a-(((1-methylcyclopropyl)sulfonyl)carbamoyl)-5,16-dioxo-1,2,3,5,6,7,8,9,10,11,13a,14,14a,15,16,16a-hexadecahydrocyclopropa[e]pyrrolo[1,2-a][1,4]diazacyclopentadecin-6-yl)carbamate] | 4.82 to 103 nM | 4.82 to 103 nM |
| CCOc1cnc(O[C@@H]2C[C@H]3C(=O)N[C@]4(C(=O)NS(=O)(=O)C5(C)CC5)C[C@H]4/C=C\CC[C@@H](C)C[C@@H](C)[C@H](NC(=O)OC(C)(C)C(C)(F)F)C(=O)N3C2)c2ccccc12 [Compound 5113, 3,3-difluoro-2-methylbutan-2-yl ((2R,6S,7R,9R,13 aS,14aR,16aS,Z)-2-((4-ethoxyisoquinolin-1-yl)oxy)-7,9-dimethyl-14a-(((1-methylcyclopropyl)sulfonyl)carbamoyl)-5,16-dioxo-1,2,3,5,6,7,8,9,10,11,13a,14,14a,15,16,16a-hexadecahydrocyclopropa[e]pyrrolo[1,2-a][1,4]diazacyclopentadecin-6-yl)carbamate] | < 5.46 nM | < 5.46 nM |
| C[C@@H]1CC/C=C\[C@@H]2C[C@@]2(C(=O)NS(=O)(=O)C2(C)CC2)NC(=O)[C@@H]2C[C@@H](Oc3nccc4c(N5CCOCC5)cccc34)CN2C(=O)[C@@H](NC(=O)OC(C)(C)C(F)(F)F)[C@H](C)C1 [Compound 5124, 1,1,1-trifluoro-2-methylpropan-2-yl ((2R,6S,7R,9R,13aS,14aR,16aS,Z)-7,9-dimethyl-14a-(((1-methylcyclopropyl)sulfonyl)carbamoyl)-2-((5-morpholinoisoquinolin-1-yl)oxy)-5,16-dioxo-1,2,3,5,6,7,8,9,10,11,13a,14,14a,15,16,16a-hexadecahydrocyclopropa[e]pyrrolo[1,2-a][1,4]diazacyclopentadecin-6-yl)carbamate] | < 5.46 nM | < 5.46 nM |
| C[C@@H]1CC/C=C\[C@@H]2C[C@@]2(C(=O)NS(=O)(=O)C2(C)CC2)NC(=O)[C@@H]2C[C@@H](Oc3nccc4c(N5CCOCC5)cccc34)CN2C(=O)[C@@H](NC(=O)OC(C)(C)C(C)(F)F)[C@H](C)C1 [Compound 5126, 3,3-difluoro-2-methylbutan-2-yl ((2R,6S,7R,9R,13aS,14aR,16aS,Z)-7,9-dimethyl-14a-(((1-methylcyclopropyl)sulfonyl)carbamoyl)-2-((5-morpholinoisoquinolin-1-yl)oxy)-5,16-dioxo-1,2,3,5,6,7,8,9,10,11,13a,14,14a,15,16,16a-hexadecahydrocyclopropa[e]pyrrolo[1,2-a][1,4]diazacyclopentadecin-6-yl)carbamate] | < 5.46 nM | < 5.46 nM |
| CCOc1ccc2c(O[C@@H]3C[C@H]4C(=O)N[C@]5(C(=O)NS(=O)(=O)C6CC6)C[C@H]5/C=C\CC[C@H](C)C[C@@H](C)[C@H](NC(=O)OC(C)(C)C(F)(F)F)C(=O)N4C3)nccc2c1 [Compound 5129, 1,1,1-trifluoro-2-methylpropan-2-yl ((2R,6S,7R,9S,13aS,14aR,16aS,Z)-14a-((cyclopropylsulfonyl)carbamoyl)-2-((6-ethoxyisoquinolin-1-yl)oxy)-7,9-dimethyl-5,16-dioxo-1,2,3,5,6,7,8,9,10,11,13a,14,14a,15,16,16a-hexadecahydrocyclopropa[e]pyrrolo[1,2-a][1,4]diazacyclopentadecin-6-yl)carbamate] | 4.82 to 103 nM | < 5.46 nM |
| CCOc1ccc2c(O[C@@H]3C[C@H]4C(=O)N[C@]5(C(=O)NS(=O)(=O)C6CC6)C[C@H]5/C=C\CC[C@@H](C)C[C@@H](C)[C@H](NC(=O)OC(C)(C)C(F)(F)F)C(=O)N4C3)nccc2c1 [Compound 5130, 1,1,1-trifluoro-2-methylpropan-2-yl ((2R,6S,7R,9R,13aS,14aR,16aS,Z)-14a-((cyclopropylsulfonyl)carbamoyl)-2-((6-ethoxyisoquinolin-1-yl)oxy)-7,9-dimethyl-5,16-dioxo-1,2,3,5,6,7,8,9,10,11,13a,14,14a,15,16,16a-hexadecahydrocyclopropa[e]pyrrolo[1,2-a][1,4]diazacyclopentadecin-6-yl)carbamate] | < 5.46 nM | < 5.46 nM |
| CCOc1ccc2c(O[C@@H]3C[C@H]4C(=O)N[C@]5(C(=O)NS(=O)(=O)C6CC6)C[C@H]5/C=C\CC[C@H](C)C[C@@H](C)[C@H](NC(=O)O[C@@H]5C[C@@H]6C[C@@H]6C5)C(=O)N4C3)nccc2c1 [Compound 5131, (1R,3r,5S)-bicyclo[3.1.0]hexan-3-yl ((2R,6S,7R,9S,13aS,14aR,16aS,Z)-14a-((cyclopropylsulfonyl)carbamoyl)-2-((6-ethoxyisoquinolin-1-yl)oxy)-7,9-dimethyl-5,16-dioxo-1,2,3,5,6,7,8,9,10,11,13a,14,14a,15,16,16a-hexadecahydrocyclopropa[e]pyrrolo[1,2-a][1,4]diazacyclopentadecin-6-yl)carbamate] | < 5.46 nM | < 5.46 nM |
| CCOc1ccc2c(O[C@@H]3C[C@H]4C(=O)N[C@]5(C(=O)NS(=O)(=O)C6CC6)C[C@H]5/C=C\CC[C@@H](C)C[C@@H](C)[C@H](NC(=O)O[C@@H]5C[C@@H]6C[C@@H]6C5)C(=O)N4C3)nccc2c1 [Compound 5132, (1R,3r,5S)-bicyclo[3.1.0]hexan-3-yl ((2R,6S,7R,9R,13aS,14aR,16aS,Z)-14a-((cyclopropylsulfonyl)carbamoyl)-2-((6-ethoxyisoquinolin-1-yl)oxy)-7,9-dimethyl-5,16-dioxo-1,2,3,5,6,7,8,9,10,11,13a,14,14a,15,16,16a-hexadecahydrocyclopropa[e]pyrrolo[1,2-a][1,4]diazacyclopentadecin-6-yl)carbamate] | < 5.46 nM | < 5.46 nM |
| CCOc1ccc2c(O[C@@H]3C[C@H]4C(=O)N[C@]5(C(=O)NS(=O)(=O)C6(C)CC6)C[C@H]5/C=C\CC[C@H](C)C[C@@H](C)[C@H](NC(=O)OC(C)(C)C(F)(F)F)C(=O)N4C3)nccc2c1 [Compound 5135, 1,1,1-trifluoro-2-methylpropan-2-yl ((2R,6S,7R,9S,13aS,14aR,16aS,Z)-2-((6-ethoxyisoquinolin-1-yl)oxy)-7,9-dimethyl-14a-(((1-methylcyclopropyl)sulfonyl)carbamoyl)-5,16-dioxo-1,2,3,5,6,7,8,9,10,11,13a,14,14a,15,16,16a-hexadecahydrocyclopropa[e]pyrrolo[1,2-a][1,4]diazacyclopentadecin-6-yl)carbamate] | 4.82 to 103 nM | < 5.46 nM |
| CCOc1ccc2c(O[C@@H]3C[C@H]4C(=O)N[C@]5(C(=O)NS(=O)(=O)C6(C)CC6)C[C@H]5/C=C\CC[C@@H](C)C[C@@H](C)[C@H](NC(=O)OC(C)(C)C(F)(F)F)C(=O)N4C3)nccc2c1 [Compound 5136, 1,1,1-trifluoro-2-methylpropan-2-yl ((2R,6S,7R,9R,13aS,14aR,16aS,Z)-2-((6-ethoxyisoquinolin-1-yl)oxy)-7,9-dimethyl-14a-(((1-methylcyclopropyl)sulfonyl)carbamoyl)-5,16-dioxo-1,2,3,5,6,7,8,9,10,11,13a,14,14a,15,16,16a-hexadecahydrocyclopropa[e]pyrrolo[1,2-a][1,4]diazacyclopentadecin-6-yl)carbamate] | < 5.46 nM | < 5.46 nM |
